Results reported in PMC7249060, “The Antiproliferative Effects of Flavonoid MAO Inhibitors on Prostate Cancer Cells” (Molecules, 2020).

Experiments:
[1] = test system: LNCaP cells; test: Antiproliferation dose-response assay for 72 h; type: cell-based; details: Homo sapiens, mean ± SEM of two experiments, read-out: antiproliferative IC50
Protocol: For the top effective KKRs, along with TAX, their potency to reduce the affected PCa cell line growth in a dose-dependent manner was determined using the resazurin fluorescence assay. We followed the same protocols and materials used for the antiproliferation screen assays (Section 4.3.2), with the following modifications. The maximum final KKR concentration used was 40 μM. The concentration of 8X of each KKR working solution in 1% HEPES 7.4 was serially diluted in a 3:1 ratio, compound to buffer, respectively. Each data set was collected from ten data points of 3.7–40 μM range. The control had the KKR substituted with buffer. The related IC50 averages were analyzed for the compounds that affected the cell lines the most.

[2] = test system: LNCaP cells; test: Antiproliferation screen assay, resazurin, 72 h; type: cell-based, human
[3] = test system: DU145 cells; test: Scratch migration assay; type: cell-based, human; details: preliminary data
Protocol: For in-vitro migration experiments, the PCa metastatic DU145 cell line was used. Cell proliferation and cytotoxicity were monitored for assay validation. The cells (passage # ≤ 10) were grown in fresh media of EMEM 10% FBS, 1% P/S. The cells were seeded in flat-bottom transparent 96-well microplates (100,000 cells/100 μL/well) in EMEM 5% FBS, 1% P/S experimental media. The next day, the confluent cells monolayer was artificially injured by scratching a line across each well, using a 200 μL tip. Immediately, the old media with the detached cells were replaced with 175 μL fresh warm experimental media. Intact cells were then treated with 25 μL of HBSS buffer 7.4 containing tested KKR. In addition to the negative control, KKR11 was tested at gradual concentrations to make finals of 40, 30, 23, 17, and 13 μM. The cells were then incubated for an additional 72 h for gap closure of the control wells.
At the gap closure time point, all cells were subjected to the crystal violet assay that only stains viable cells. Briefly, all media were carefully aspired from cells that were then washed with Ca- and Mg-free PBS. The cells were then fixed with 100 μL 0.25% v/v glutaraldehyde, at 37 °C for 20–30 min incubation time, and dried overnight. The next day, all viable attached cells were stained with a 100 μL crystal violet solution (0.1% in DI-water) for up to 30 min. The solution was then discarded, and the stained cells were kept dry for imaging. Images of the scratched areas were photographed using 10X phase contrast objective lenses of Motic-MXH-100-AE31E-Elite Inverted Microscope.

[4] = test system: LNCaP cells; test: Antiproliferation screen assay, resazurin, 72 h; type: cell-based, human; details: 50 μM
Protocol: In this screen, we examined the growth inhibitory effects of all synthesized KKRs on the three human PCa cell lines LNCaP, DU145, and PC3. The antiproliferative clinical drug TAX of 0.25 μM was used as a positive control. Additionally, different standards of MAO-Is and FLUT were tested for their effect on the LNCaP cells. Briefly, the procedures and materials used were the same as for the viability assay except for the following—cultured cells were seeded at 10,000 cells/175-µL/well related experimental media, and the resazurin solution was added after 72 h of incubation with the compounds of 50 μM each.

[5] = test system: LNCaP cells; test: Viability screen assay, resazurin, 24 h; type: cell-based, human; details: 50 μM, 90% viability as margin of cytotoxicity
Protocol: We examined the cytotoxic effects of all 20 synthesized KKRs on the three human PCa cell lines LNCaP, DU145, and PC3, after a 24 h exposure period. Non-toxic TAX was used for comparison. Briefly, cultured cells were seeded in black transparent bottom 96-well microplates at 50,000 cells/175-µL/well in experimental media (RPMI1640 for LNCaP, EMEM for DU145, and DMEM/F12K for PC3), supplied with 5% FBS and 1% P/S. Wells of media without cells were considered blanks and negative controls. The plates were incubated overnight at 37 °C in 5% CO2 to allow cell attachment. For each compound, a working solution of 8X KKR in sterile […] HEPES in HBSS pH buffer of 7.4 was prepared for a final concentration of 50 μM each. The three attached cell types were treated immediately with the related buffer being added to the control wells. A sterile fluorescence-based solution of the resazurin reagent of 0.5 mg/mL in HBSS was prepared. After 24 h, the cells were exposed to 15% v/v of the sterile resazurin reagent, and the plates were re-incubated for 4.5 h to allow redox reaction. All plates were read under 530/590-nm excitation/emission wavelengths using Bio-Tek Synergy HTX Multi-reader as a microplate fluorescence reader.

[6] = target: T1, hMAO-B (Homo sapiens, UniProt P27338); test: MAO-Glow inhibitory potency (IC50); type: biochemical; details: mean ± SEM, at least two experiments; LDS 4 μM
T1 construct: purchased Sigma-Aldrich Co. (St. Louis, MO, USA)
T1 sequence (P27338 1-520): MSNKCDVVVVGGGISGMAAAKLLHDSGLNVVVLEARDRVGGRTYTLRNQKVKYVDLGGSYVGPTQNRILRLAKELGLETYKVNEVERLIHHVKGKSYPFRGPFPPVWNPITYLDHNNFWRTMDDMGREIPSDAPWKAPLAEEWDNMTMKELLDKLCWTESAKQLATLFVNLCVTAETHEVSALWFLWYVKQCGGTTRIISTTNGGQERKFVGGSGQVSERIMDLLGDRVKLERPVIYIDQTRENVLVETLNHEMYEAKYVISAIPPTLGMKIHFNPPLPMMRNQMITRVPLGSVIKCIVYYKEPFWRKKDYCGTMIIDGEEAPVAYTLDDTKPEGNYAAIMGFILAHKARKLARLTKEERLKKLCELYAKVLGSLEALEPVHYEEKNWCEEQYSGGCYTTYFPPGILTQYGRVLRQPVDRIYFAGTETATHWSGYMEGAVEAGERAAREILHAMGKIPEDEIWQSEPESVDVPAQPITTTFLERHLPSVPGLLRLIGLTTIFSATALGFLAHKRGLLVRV
Protocol: (§1) The inhibitory effects of the synthesized KKRs of hMAO-A and B were tested by measuring the decrease in arbitrary light units (ALU) signal produced by the optimized isozymes using the MAO-Glow™ Assay at 37 °C. In this assay, DMSO stock for each KKR compound was diluted with a reaction buffer of pH 7.4 to make a 4X working solution for a maximum final concentration of 100 μM and ≤1% DMSO. The experiments were run in the absence and presence of 4X the miscellaneous standards of MAO-BIs (DEP, PARG, and SAF) and MAO-AIs (PIRL and CLORG), with similar concentrations. In white opaque 96-well microplates, 12.5 μL of each compound was plated at RT and was followed by 25 μL of 2X cold hMAO-A or hMAO-B, for a final concentration of 0.44 U/mL. A related buffer substituted each isozyme to make the blank wells and substituted each compound to make the negative control wells. Following this, we added 12.5 μL of 4X LDS to make a final substrate concentration of 40- and 4-μM for hMAO-A and hMAO-B, respectively. All screen plates were incubated at 37 °C for 60 min. The plates of 50 μL/well were then taken out from the incubator, and their reactions were stopped by an equal volume of 50 μL of reporter luciferin detection reagent (RLDR). After 30 min, the luminescence signals for all plates were read on a Synergy HTX Multi-reader from Bio-Tek (Winooski, VT, USA).
(§2) The experiments were performed in the presence and absence of the standard PILR. In white opaque 96-well plates, each KKR compound was serially diluted with a reaction buffer of pH 7.4 at the highest possible maximum final concentration, and the least used DMSO (<2%). In blank wells, the related reaction buffer substituted the isozyme. In negative control wells, the reaction buffer substituted each compound concentration. Then, the procedure was carried out as mentioned above (Section 4.2.2), and the reaction was detected on the Bio-Tek Synergy HTX Multi-Reader. The IC50 of each KKR on both isozymes was determined and subsequently the RSA and RSB was calculated.
(§3) Statistical analyses were performed using the GraphPad Prism program (version 6.07 for Windows) from the GraphPad Prism Software Incorporated (San Diego, CA, USA). All data points and parameters were expressed as the mean ± SEM. All parameters were calculated from non-linear and linear regressions with the best R^2 values, no less than 93%. The inhibitory concentration of 50% of isozyme (IC50) of each compound was obtained by the interpolation of a normalized variable slope logarithmic curve. The RSA values of the selected compounds were calculated from their IC50 average means following the equation RSA = hMAO − B IC50/Hmao − A IC50(1)

[7] = test system: LNCaP cells; test: cells; type: cell-based, human
Protocol: The morphological alterations of the LNCaP cells were imaged, and their percentage proliferation rate was measured after five-days of incubation. The method of subculture and treatment were similar to our antiproliferation assay, with slight modifications. Briefly, the cells were seeded in transparent flat-bottom 96-well microplates with 10,000 cells/175 μL/well of […] experimental media. Following overnight incubation, 20 μM concentration level (~2 × IC50) for each of KKR11, 20, 7, 2A, 21, and the standard PIRL were added to the cells for a total volume of 200 μL/well and re-incubated for five-days. On the day of imaging, 20X phase-contrast images of lid-covered treated and control cells were captured using an inverted microscope. Resazurin was then added for viability detection, and the imaged cells in the wells were read after 4.5 h on the Bio-Tek Synergy HTX Multi-reader.

[8] = target: T2, hMAO-A (Homo sapiens, UniProt P21397); test: MAO-Glow inhibitory potency (IC50) and relative selectivity; type: biochemical; details: mean ± SEM, at least two experiments; LDS 40 μM
T2 construct: purchased Sigma-Aldrich Co. (St. Louis, MO, USA)
T2 sequence (P21397 1-527): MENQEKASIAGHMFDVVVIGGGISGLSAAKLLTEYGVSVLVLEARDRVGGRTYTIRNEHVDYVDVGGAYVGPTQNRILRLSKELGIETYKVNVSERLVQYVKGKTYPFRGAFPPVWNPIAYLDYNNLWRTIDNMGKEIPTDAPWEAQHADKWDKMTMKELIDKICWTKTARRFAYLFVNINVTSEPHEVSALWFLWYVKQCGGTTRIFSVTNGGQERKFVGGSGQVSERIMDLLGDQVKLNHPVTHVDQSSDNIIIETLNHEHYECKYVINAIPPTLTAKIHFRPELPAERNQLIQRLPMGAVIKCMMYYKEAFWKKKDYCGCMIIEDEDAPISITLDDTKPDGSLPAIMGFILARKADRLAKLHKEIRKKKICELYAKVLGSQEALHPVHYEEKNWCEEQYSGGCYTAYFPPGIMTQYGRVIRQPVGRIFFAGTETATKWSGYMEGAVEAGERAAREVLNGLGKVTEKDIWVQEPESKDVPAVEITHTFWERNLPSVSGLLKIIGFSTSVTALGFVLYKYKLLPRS
Protocol: as §1, §2, §3

For `CC(=O)O[C@H]1C(=O)[C@@]2(C)[C@H]([C@H](OC(=O)c3ccccc3)[C@]3(O)C[C@H](OC(=O)[C@H](O)[C@@H](NC(=O)c4ccccc4)c4ccccc4)C(C)=C1C3(C)C)[C@]1(OC(C)=O)CO[C@@H]1C[C@@H]2O` [TAX, paclitaxel, reference compound], the IC50 [1] was 210 nM, the “antiproliferative effect of clinical standards” value ([2]; 0.5 μM) was “highly effective” and the “effect on cell migration” value [3] was “delayed cell migration”.

With `C#CCN(C)[C@H](C)Cc1ccccc1.Cl` [DEP, (R)-(−)-deprenyl HCl] the “antiproliferative effect of clinical standards” value ([2]; 10 μM) was “none of the standards showed a significant antiproliferative effect”.

With `O=C(/C=C/c1ccc2c(c1)OCO2)c1cc(Cl)cc(Cl)c1O` [KKR18, (E)-3-(benzo[d][1,3]dioxol-5-yl)-1-(3,5-dichloro-2-hydroxyphenyl)prop-2-en-1-one] the “antiproliferative effect in screen” value [4] was “top five KKRs that kept standing out with antiproliferative effects”.

With `COc1cc(-c2cc(=O)c3ccccc3o2)cc(OC)c1OC` [KKR22, 2-(3,4,5-trimethoxyphenyl)-4H-chromen-4-one] the “cytotoxicity / cell viability” value [5] was “affected the LNCaP cells”.

In the case of `O=C(/C=C/c1ccccc1)c1cc(Cl)c(Cl)cc1O` [KKR23, (E)-1-(4,5-dichloro-2-hydroxyphenyl)-3-phenylprop-2-en-1-one], the “antiproliferative effect in screen” value [4] is reported as “top five KKRs that kept standing out with antiproliferative effects”.

`COc1cc(OC)c2c(=O)c(O)c(/C=C/c3ccccc3)oc2c1` [KKR16, (E)-3-hydroxy-5,7-dimethoxy-2-styryl-4H-chromen-4-one] was tested, and the “cytotoxicity / cell viability” value [5] was “affected the LNCaP cells”.

For `Cc1ccc2c(c1)c1c3n2CCNC3CCC1` (stereo not drawn) [PIRL, pirlindole, reference compound], the IC50 [1] was greater than 40000 nM, the IC50 [6] was greater than 800000 nM and the “effect on LNCaP proliferation and cell morphology” value ([7]; 20 μM, five days, phase contrast) was “neither significant effects on LNCaP proliferation nor apparent changes in cell morphology”. The viability at 20 µM ([7]; Homo sapiens, LNCaP, 120 h, read-out: percentage of treated group compared to the viable control) was 90%, the “antiproliferative effect of clinical standards” value ([2]; 10 μM) was “none of the standards showed a significant antiproliferative effect” and the IC50 [8] was 12 ± 2 nM.

With `CC(C)C(=O)Nc1ccc([N+](=O)[O-])c(C(F)(F)F)c1` [FLUT, flutamide] the “antiproliferative effect of clinical standards” value ([2]; 10 μM) was “none of the standards showed a significant antiproliferative effect”.
